From EP4680608B1, “2,6-DIHYDRO-7H-PYRAZOLO[3,4-C]PYRIDIN-7-ONE DERIVATIVES AS ANTI-MALARIAL AGENTS” (MMV Medicines for Malaria Venture, priority 2024, dated 2025)

How the values were obtained:
P. falciparum DHODH = target: T1, P. falciparum DHODH (Plasmodium falciparum, UniProt Q08210); assay: DHODH inhibition, steady-state DCIP assay (PfDHODH); type: biochemical; conditions: recombinant PfDHODH, DCIP method, 25°C, 5 nM enzyme
T1 construct: His6 (N); made in house; host or cells: E. coli BL21-DE3 (phage-resistant)
T1 sequence (Q08210 158-569): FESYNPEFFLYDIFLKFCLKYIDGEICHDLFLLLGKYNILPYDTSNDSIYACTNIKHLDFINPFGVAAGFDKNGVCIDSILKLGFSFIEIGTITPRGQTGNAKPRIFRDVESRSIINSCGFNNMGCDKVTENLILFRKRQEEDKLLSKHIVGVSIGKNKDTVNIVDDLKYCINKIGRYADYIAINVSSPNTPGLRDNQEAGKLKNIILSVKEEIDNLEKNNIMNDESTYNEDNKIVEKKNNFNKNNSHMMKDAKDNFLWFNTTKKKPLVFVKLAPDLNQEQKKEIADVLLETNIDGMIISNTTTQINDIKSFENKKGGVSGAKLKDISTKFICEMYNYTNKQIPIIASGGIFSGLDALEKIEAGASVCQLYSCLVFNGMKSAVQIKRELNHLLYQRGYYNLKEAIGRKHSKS
Experimental: (§1) Compound stocks were prepared at 10-100 mM in DMSO, and diluted working stocks in DMSO were generated as appropriate. Compounds were plated from DMSO stocks in 96 well plate format using a Tecan D300e digital dispenser to generate a 3-fold dilution series over a concentration range of 0.0003 -100 µM (or 30 µM), yielding a final DMSO concentration of 1% in the assay. The top concentration used in the dose response was determined by the initial DMSO stock concentrations:100 µM for 100 mM stocks, and 30 µM for 10 mM stocks. Triplicate rate data were collected at each inhibitor concentration. Inhibitory IC50 values were determined by fitting the data to log (inhibitor) vs response equation Y = bottom + (top - bottom)/(1 + 10A ((X - Log IC50))) in GraphPad Prism.

P. falciparum 3D7 = assay: Asexual blood-stage growth inhibition assay, SYBR green method; type: cell-based; conditions: Plasmodium falciparum, 3D7, 72 h, ring-stage 3D7 parasites
Experimental: Asexual blood-stage EC50 assays. […] Compound stocks prepared in DMSO were plated using a Tecan D300e automated low volume liquid handler. Ring-stage 3D7 or Dd2 parasites (60 µL cells) (2% hematocrit, 0.5% parasitemia, final DMSO concentration 0.5%) were added to plates, incubated with compounds over a range of concentrations in technical triplicate for 72 h at 37 °C, 5% CO2, and then frozen (-80°C) overnight before analysis. […] Data were analyzed by non-linear regression using GraphPad Prism to determine the EC50 by fitting to the built-in equation (log(inhibitor) vs response-variable slope with four parameters).

Human DHODH = target: T2, Human DHODH (Homo sapiens, UniProt Q02127); assay: DHODH inhibition, steady-state DCIP assay (human DHODH); type: biochemical; conditions: recombinant HsDHODH, DCIP method, 25°C, 5 nM enzyme; top concentration 100 µM or 30 µM
T2 construct: C-terminal His6-tagged HsDHODH residues 29-395 in pET-22b (start ^29MATGDE); His6 (C); made in house; host or cells: E. coli BL21-DE3 (phage-resistant)
T2 sequence (Q02127 29-395): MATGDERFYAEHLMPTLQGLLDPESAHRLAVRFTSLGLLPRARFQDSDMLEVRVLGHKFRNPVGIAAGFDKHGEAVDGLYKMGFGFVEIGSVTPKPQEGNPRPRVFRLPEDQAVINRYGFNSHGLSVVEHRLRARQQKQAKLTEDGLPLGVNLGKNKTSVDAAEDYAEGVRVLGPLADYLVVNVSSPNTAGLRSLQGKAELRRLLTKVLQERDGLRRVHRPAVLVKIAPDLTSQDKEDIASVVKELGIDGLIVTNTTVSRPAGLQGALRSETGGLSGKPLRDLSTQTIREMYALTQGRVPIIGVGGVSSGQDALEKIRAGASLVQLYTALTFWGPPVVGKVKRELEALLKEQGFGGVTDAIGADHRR
Description: (§2) DOI: 10.1074/jbc.M206854200).
(§3) Proteins were expressed and purified on a Pharmacia FPLC using HisTrap HP column chromatography followed by gel filtration chromatography on a Pharmacia HiLoad 16/600 Superdex 200 column, and protein concentration determined based on OD280 using the previously described extinction coefficients (Kokkonda et al., 2020, J Med Chem, 63 (9), 4929-4956. DOI: 10.1021/acs.jmedchem.0c00311). Purified proteins were >95% pure based on SDS-PAGE analysis.
(§4) DHODH activity was monitored in a steady-state assay using the 2,6-dichloroindophenol (DCIP) method at 25°C in assay buffer (100 mM HEPES, pH 8.0, 150 mM NaCl, 1% glycerol, 0.1% Triton X-100 reduced) plus substrates 20 µM CoQD, 200 µM DHO, 120 µM DCIP, and 5 nM enzyme as previously described (Malmquist et al, 2008, Biochemistry, 47 (8), 2466-2475. DOI: 10.1021/bi702218c).
as §1, with “Prism. DSM265 ^2 was plated as an assay control in all studies.” for “Prism.”

P. vivax DHODH = P. vivax DHODH (Plasmodium vivax, UniProt A5K1N1); assay: DHODH inhibition, steady-state DCIP assay (PvDHODH); type: biochemical; conditions: recombinant PvDHODH, DCIP method, 25°C, 5 nM enzyme; read-out: P. vivax DHODH (IC50)
Sequence of P. vivax DHODH (A5K1N1 entry or part of it): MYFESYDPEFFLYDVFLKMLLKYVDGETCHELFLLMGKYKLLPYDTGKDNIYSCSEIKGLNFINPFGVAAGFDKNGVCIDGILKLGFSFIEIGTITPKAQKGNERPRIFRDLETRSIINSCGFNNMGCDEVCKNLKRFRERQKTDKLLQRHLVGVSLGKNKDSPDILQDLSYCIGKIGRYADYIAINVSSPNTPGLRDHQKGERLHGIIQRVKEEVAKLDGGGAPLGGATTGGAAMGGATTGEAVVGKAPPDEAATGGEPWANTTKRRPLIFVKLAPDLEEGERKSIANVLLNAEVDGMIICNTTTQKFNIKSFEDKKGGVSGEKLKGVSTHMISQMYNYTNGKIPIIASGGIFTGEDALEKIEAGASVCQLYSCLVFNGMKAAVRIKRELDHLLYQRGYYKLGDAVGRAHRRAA
Description: as §2, §3, §4
as §1, with “Prism. DSM265 ^2 was plated as an assay control in all studies.” for “Prism.”

Compound	IC50 (P. falciparum DHODH)	EC50 (P. falciparum 3D7)	IC50 (Human DHODH)	IC50 (P. vivax DHODH)
CCn1cnc2c([C@](C)(O)c3ccc(C(F)(F)F)c(C#N)c3)n(C)nc2c1=O (single isomer, unassigned) [3-11]	32 nM	0.52 nM	> 100000 nM	9.4 nM
Cn1nc2c(=O)n(C3CC3)ccc2c1[C@](N)(c1cnc(C(F)(F)F)c(Cl)c1)C(F)(F)F (single isomer, unassigned) [4-1]	21 nM	2.6 nM	> 30000 nM	13 nM
Cn1nc2c(=O)n(C3CC3)ccc2c1[C@](C)(N)c1ccc(C(F)(F)F)c(Cl)c1 (single isomer, unassigned) [4-4]	12 nM	0.61 nM	15000 nM	9 nM
CC[C@@](N)(c1ccc(C(F)(F)F)c(F)c1)c1c2ccn(C3CC3)c(=O)c2nn1C (single isomer, unassigned) [4-5]	16 nM	10 nM	1300 nM	7 nM
CC[C@@](N)(c1ccc(C(F)(F)F)c(Cl)c1)c1c2ccn(C3CC3)c(=O)c2nn1C (single isomer, unassigned) [4-8]	9.3 nM	1.1 nM	1000 nM	6.2 nM
CC[C@@](N)(c1cnc(C(F)(F)F)c(Cl)c1)c1c2ccn(C3CC3)c(=O)c2nn1C (single isomer, unassigned) [4-11]	42 nM	2.6 nM	13000 nM	41 nM
CCn1cc(C)c2c([C@H](N)c3ccc(C(F)(F)F)c(C#N)c3)n(C)nc2c1=O (single isomer, unassigned) [4-14]	83 nM	16 nM	> 100000 nM	39 nM
Cn1nc2c(=O)n(C3CC3)ncc2c1[C@](N)(c1ccc(C(F)(F)F)c(Cl)c1)C1CC1 (single isomer, unassigned) [4-16]	17 nM	7.4 nM	16000 nM	7.8 nM
Cn1nc2c(=O)n(C3CC3)cnc2c1[C@](C)(N)c1ccc(C(F)(F)F)c(Cl)c1 (single isomer, unassigned) [4-20]	8.2 nM	0.44 nM	20000 nM	8.3 nM
CC[C@@](N)(c1ccc(F)c(Cl)c1)c1c2ncn(C3CC3)c(=O)c2nn1C (single isomer, unassigned) [4-22]	23 nM	4.1 nM	4600 nM	20 nM
Cn1nc2c(=O)n(C3CC3)cnc2c1[C@](N)(c1ccc(C(F)(F)F)c(Cl)c1)C1CC1 (single isomer, unassigned) [4-24]	11 nM	2.1 nM	3200 nM	8.7 nM
CC[C@@](N)(c1ccc(C(F)(F)F)c(Cl)c1)c1c2ncn(C3CC3)c(=O)c2nn1C (single isomer, unassigned) [4-26]	9.5 nM	0.91 nM	1400 nM	5.2 nM
CC[C@@](N)(c1cnc(C(F)(F)F)c(Cl)c1)c1c2ncn(C3CC3)c(=O)c2nn1C (single isomer, unassigned) [4-27]	47 nM	6.5 nM	> 30000 nM	40 nM
Cn1nc2c(=O)n(C3CC3)cnc2c1[C@](O)(c1cnc(C(F)(F)F)c(Cl)c1)C(F)(F)F (single isomer, unassigned) [5-3]	18 nM	1.7 nM	> 30000 nM	28 nM
Cn1nc2c(=O)n(C3CC3)ccc2c1[C@](O)(c1ccc(F)c(Cl)c1)C(F)(F)F (single isomer, unassigned) [5-9]	14 nM	0.52 nM	9200 nM	9.8 nM
